Measured values: patent US20060035925A1, “SUBSTITUTED 4H-CHROMENES AND ANALOGS AS ACTIVATORS OF CASPASES AND INDUCERS OF APOPTOSIS AND THE USE THEREOF” (Cytovia, Inc., priority 1999, published 2006)
Read-outs that look alike come from different tables or passages of the source.

Assays:
[1] = tested on: Human breast cancer cell line T-47D; assay: Caspase cascade activation assay (N-(Ac-DEVD)-N'-ethoxycarbonyl-R110 fluorogenic substrate) in T-47D cells; format: cell-based; details: for Caspase activity (Ratio) T-47D: 24 h incubation with compound, ratio of net RFU (T=3 h) of test compound to control
Description: (§1) Human breast cancer cell lines T-47D and ZR-75-1 were grown according to media component mixtures designated by American Type Culture Collection +10% FCS (Invitrogen Corporation), in a 5% CO2-95% humidity incubator at 37° C. T-47D and ZR-75-1 cells were maintained at a cell density between 30 and 80% confluency at a cell density of 0.1 to 0.6×10^6 cells/ml. Cells were harvested at 600×g and resuspended at 0.65×10^6 cells/mL into appropriate media +10% FCS. An aliquot of 45 μl of cells was added to a well of a 96-well microtiter plate containing 5 μl of a 10% DMSO in RPMI-1640 media solution containing 0.16 to 10 μM of 2-amino-3-cyano-4-(3-bromo-4,5-dimethoxyphenyl)-4H-indolo[7,6-b]pyran (Example 42) or other test compound (0.016 to 1 μM final). An aliquot of 45 μl of cells was added to a well of a 96-well microtiter plate containing 5 μl of a 10% DMSO in RPMI-1640 media solution without test compound as the control sample. The samples were mixed by agitation and then incubated at 37° C. for 24 h in a 5% CO2-95% humidity incubator. After incubation, the samples were removed from the incubator and 50 μl of a solution containing 20 μM of N-(Ac-DEVD)-N′-ethoxycarbonyl-R110 (SEQ ID NO:1) fluorogenic substrate (Cytovia, Inc.; WO99/18856), 20% sucrose (Sigma), 20 mM DTT (Sigma), 200 mM NaCl (Sigma), 40 mM Na PIPES buffer pH 7.2 (Sigma), and 500 μg/ml lysolecithin (Calbiochem) was added. The samples were mixed by agitation and incubated at room temperature. Using a fluorescent plate reader (Model 1420 Wallac Instruments), an initial reading (T=0) was made approximately 1-2 min after addition of the substrate solution, employing excitation at 485 nm and emission at 530 nm, to determine the background fluorescence of the control sample. After the 3 h incubation, the samples were read for fluorescence as above (T=3 h).
(§2) The Relative Fluorescence Unit values (RFU) were used to calculate the sample readings as follows: RFU(T=3h)−Control RFU(T=0)=Net RFU(T=3h)
(§3) The activity of caspase cascade activation was determined by the ratio of the net RFU value for 2-amino-3-cyano-4-(3-bromo-4,5-dimethoxyphenyl)-4H-indolo[7,6-b]pyran or other test compound to that of control samples. The EC50 (nM) was determined by a sigmoidal dose-response calculation (Prism 2.0, GraphPad Software Inc.).

[2] = tested on: Human breast cancer cell line ZR-75-1; assay: Caspase cascade activation assay (N-(Ac-DEVD)-N'-ethoxycarbonyl-R110 fluorogenic substrate) in ZR-75-1 cells; format: cell-based; details: for Caspase activity (Ratio) ZR-75-1: 24 h incubation with compound, ratio of net RFU (T=3 h) of test compound to control
Description: as §1, §2, §3

[3] = 24 h incubation, sigmoidal dose-response, read-out: Caspase potency EC50 (nM) T-47D
[4] = ZR-75-1 cells, 24 h incubation, sigmoidal dose-response, read-out: Caspase potency EC50 (nM) ZR-75-1
[5] = Homo sapiens, T47D, 24 h, 24 h incubation, sigmoidal dose-response, read-out: Caspase potency EC50 (nM) T-47D
[6] = Homo sapiens, ZR-75-1, 24 h, ZR-75-1 cells, 24 h incubation, sigmoidal dose-response, read-out: Caspase potency EC50 (nM) ZR-75-1

EC50 [1, 3]	EC50 [2, 4]	EC50 [1, 5]	EC50 [2, 6]	EC50 ([1]; Homo sapiens, T47D, additional compounds, Table II, read-out: Caspase potency EC50 (nM) T-47D, Table II)	EC50 ([2]; Homo sapiens, ZR-75-1, ZR-75-1 cells, additional compounds, Table II, read-out: Caspase potency EC50 (nM) ZR-75-1, Table II)	Molecule	Caspase activity (Ratio) T-47D [1]	Caspase activity (Ratio) ZR-75-1 ([2]; ZR-75-1 cells)	Caspase activity (Ratio) T-47D, Table II ([1]; additional compounds, Table II)	Caspase activity (Ratio) ZR-75-1, Table II ([2]; ZR-75-1 cells, additional compounds, Table II)
		58 nM	27.9 nM			N#CC1=C(N)OC2C3=CC=NC3=CC=C2C1c1cncc(C#N)c1 (centres unmarked) [Example 57, 2-Amino-3-cyano-4-(5-cyano-pyridin-3-yl)-4H-indolo[4,5-b]pyran]	7.2	7.3		
		37 nM	16 nM			N#CC1=C(N)OC2C3=CC=NC3=CC=C2C1c1cc(F)cc(F)c1 (centres unmarked) [Example 2K, 2-Amino-3-cyano-4-(3,5-difluorophenyl)-4H-indolo[4,5-b]pyran]	5.6	6.9		
		26 nM	22.7 nM			COc1cc(OC)cc(C2C3=CC=C4C=CN=C4C3OC(N)=C2C#N)c1 (centres unmarked) [Example 52, 2-Amino-3-cyano-4-(3,5-dimethoxyphenyl)-4H-indolo[7,6-b]pyran]	11.8	9.9		
> 1000 nM	570 nM					COc1cc(C2C(C#N)=C(N)Oc3c2ccc2[nH]c(C)nc32)cc(Br)c1OC (centres unmarked) [Example 65, 2-Amino-3-cyano-4-(3-bromo-4,5-dimethoxy-phenyl)-8-methyl-4H-imidazo[4,5-h]-chromene]	1.5	6.0		
		50.4 nM				COc1cc(C2C(C#N)=C(N)Oc3c2ccc(O)c3N)cc(Br)c1OC (centres unmarked) [Example 2I, 2-Amino-3-cyano-7-hydroxy-8-amino-4-(3-bromo-4,5-dimethoxyphenyl)-4H-chromene]	6.2			

The remaining lines, values behind:

Molecule	EC50 [1, 3]	EC50 [2, 4]	EC50 [1, 5]	EC50 [2, 6]	EC50 ([1]; Homo sapiens, T47D, additional compounds, Table II, read-out: Caspase potency EC50 (nM) T-47D, Table II)	EC50 ([2]; Homo sapiens, ZR-75-1, ZR-75-1 cells, additional compounds, Table II, read-out: Caspase potency EC50 (nM) ZR-75-1, Table II)	Caspase activity (Ratio) T-47D [1]	Caspase activity (Ratio) ZR-75-1 ([2]; ZR-75-1 cells)	Caspase activity (Ratio) T-47D, Table II ([1]; additional compounds, Table II)	Caspase activity (Ratio) ZR-75-1, Table II ([2]; ZR-75-1 cells, additional compounds, Table II)
COc1cc(C2C(C#N)=C(N)Oc3cc(-n4cccc4)ccc32)cc(Br)c1OC (centres unmarked) [Example 67, 2-Amino-3-cyano-7-pyrrole-4-(3-bromo-4,5-dimethoxyphenyl)-4H-chromene]	349 nM	148 nM					9.2	6.9		
Cc1cc2c(cc1Cl)C(c1ccccc1)C(C#N)=C(N)O2 (centres unmarked) [Example 47, 2-Amino-6-chloro-3-cyano-7-methyl-4-phenyl-4H-chromene]			> 1000 nM	552 nM			1.9	7.3		
CCNc1ccc2c(c1)OC(N)=C(C#N)C2c1cccc(C#N)c1 (centres unmarked) [Example 16, 2-Amino-3-cyano-7-ethylamino-4-(3-cyanophenyl)-4H-chromene]			11 nM	6 nM			7	6.7		
N#CC1=C(N)Oc2cc(N)ccc2C1c1cccc(I)c1 (centres unmarked) [2,7-Diamino-3-cyano-4-(3-iodophenyl)-4H-chromene]					33 nM	18 nM			4.8	5.1
COc1ccc2c(c1)OC(N)=C(C#N)C2c1cccc(Br)c1 (centres unmarked) [Example 6, 2-Amino-3-cyano-7-methoxy-4-(3-bromophenyl)-4H-chromene]			54 nM	30 nM			6.8	12.8		
COc1ccc2c(c1)OC(N)=C(C#N)C2c1cncc(Br)c1 (centres unmarked) [Example 33, 2-Amino-3-cyano-4-(5-bromo-3-pyridyl)-7-methoxy-4H-chromene]			7 nM	7 nM			7.0	10.4		
2-Amino-3-cyano-7-methoxy-4-(2,4-dimethoxypyrimidinyl)-4H-chromene [Example 27]	> 10000 nM	> 10000 nM					<2	<2		
N#CC1=C(N)Oc2cc(N)ccc2C1c1cccc(C#N)c1 (centres unmarked) [Example 20, 2,7-Diamino-3-cyano-4-(3-cyanophenyl)-4H-chromene]			120 nM	58 nM			4.0	5.2		
